Data: patent US7691965B2, “Helical synthetic peptides that stimulate cellular cholesterol efflux” (The Regents of the University of California, priority 2002, dated 2010)
Where a SMILES comes first, the peptide text is derived from it.

Columns and labels:
[1] = Relative lipid binding affinity by surface balance technique (monolayer exclusion pressure); assay type: physicochemical; conditions: for Monolayer exclusion pressure: surface balance technique
Text: (§1) Relative Lipid Binding Affinity, Hydrophobicity, and Amphiphilicity of Synthetic Peptides—In some experiments, the relative lipid binding affinity of unique peptides was quantified using a surface balance technique (Gillotte, K L. et al., J. Biol. Chem., 274:2021-2028 (1999)). For routine analyses, a turbid solution of dimyristoylphosphatidylcholine (DMPC) was used to assess the relative capacity of synthetic peptides to solubilize phospholipid as described (Palgunachari, M. N. et al., Arterioscler. Thromb. Vasc. Biol., 16:328-338 (1996); McLean, L. R. and Hagaman, K. A., Biochim. Biophys. Acta, 1167:289-295 (1993)). The DMPC was used at a final concentration of 0.08 mg/ml in 10 mM Tris-saline (pH 7.4). The final weight ratio of peptides relative to DMPC was 1:1. The absorbance (400 nm) of samples was monitored continuously over a period of 30 min at 25° C. Hydrophobicity of helical peptides was calculated using the consensus scale (Eisenberg D., Annu. Rev. Biochem., 53:593-623 (1984)). The hydrophobic moment (kcal/mol) of synthetic peptides, which is a measure of helix amphiphilicity, was calculated as described by Eisenberg et al. (Eisenberg, D. et al., Nature, 299:371-374 (1982)).

[2] = target: T1, ABCA1 (Mus musculus, UniProt P41233); test: ABCA1 stabilization: immunoblot of ABCA1 protein in J774 macrophage membranes after cAMP withdrawal; assay type: cell-based; parameters: J774 macrophages were used to assess relative ABCA1 protein levels in the presence and absence of synthetic peptides; endogenous in cells; host or cells: J774 macrophages treated with a cAMP analog (CPT-cAMP or 8-bromo-cAMP); conditions: concentration dependence studies, J774 macrophages
T1 sequence (P41233 whole entry): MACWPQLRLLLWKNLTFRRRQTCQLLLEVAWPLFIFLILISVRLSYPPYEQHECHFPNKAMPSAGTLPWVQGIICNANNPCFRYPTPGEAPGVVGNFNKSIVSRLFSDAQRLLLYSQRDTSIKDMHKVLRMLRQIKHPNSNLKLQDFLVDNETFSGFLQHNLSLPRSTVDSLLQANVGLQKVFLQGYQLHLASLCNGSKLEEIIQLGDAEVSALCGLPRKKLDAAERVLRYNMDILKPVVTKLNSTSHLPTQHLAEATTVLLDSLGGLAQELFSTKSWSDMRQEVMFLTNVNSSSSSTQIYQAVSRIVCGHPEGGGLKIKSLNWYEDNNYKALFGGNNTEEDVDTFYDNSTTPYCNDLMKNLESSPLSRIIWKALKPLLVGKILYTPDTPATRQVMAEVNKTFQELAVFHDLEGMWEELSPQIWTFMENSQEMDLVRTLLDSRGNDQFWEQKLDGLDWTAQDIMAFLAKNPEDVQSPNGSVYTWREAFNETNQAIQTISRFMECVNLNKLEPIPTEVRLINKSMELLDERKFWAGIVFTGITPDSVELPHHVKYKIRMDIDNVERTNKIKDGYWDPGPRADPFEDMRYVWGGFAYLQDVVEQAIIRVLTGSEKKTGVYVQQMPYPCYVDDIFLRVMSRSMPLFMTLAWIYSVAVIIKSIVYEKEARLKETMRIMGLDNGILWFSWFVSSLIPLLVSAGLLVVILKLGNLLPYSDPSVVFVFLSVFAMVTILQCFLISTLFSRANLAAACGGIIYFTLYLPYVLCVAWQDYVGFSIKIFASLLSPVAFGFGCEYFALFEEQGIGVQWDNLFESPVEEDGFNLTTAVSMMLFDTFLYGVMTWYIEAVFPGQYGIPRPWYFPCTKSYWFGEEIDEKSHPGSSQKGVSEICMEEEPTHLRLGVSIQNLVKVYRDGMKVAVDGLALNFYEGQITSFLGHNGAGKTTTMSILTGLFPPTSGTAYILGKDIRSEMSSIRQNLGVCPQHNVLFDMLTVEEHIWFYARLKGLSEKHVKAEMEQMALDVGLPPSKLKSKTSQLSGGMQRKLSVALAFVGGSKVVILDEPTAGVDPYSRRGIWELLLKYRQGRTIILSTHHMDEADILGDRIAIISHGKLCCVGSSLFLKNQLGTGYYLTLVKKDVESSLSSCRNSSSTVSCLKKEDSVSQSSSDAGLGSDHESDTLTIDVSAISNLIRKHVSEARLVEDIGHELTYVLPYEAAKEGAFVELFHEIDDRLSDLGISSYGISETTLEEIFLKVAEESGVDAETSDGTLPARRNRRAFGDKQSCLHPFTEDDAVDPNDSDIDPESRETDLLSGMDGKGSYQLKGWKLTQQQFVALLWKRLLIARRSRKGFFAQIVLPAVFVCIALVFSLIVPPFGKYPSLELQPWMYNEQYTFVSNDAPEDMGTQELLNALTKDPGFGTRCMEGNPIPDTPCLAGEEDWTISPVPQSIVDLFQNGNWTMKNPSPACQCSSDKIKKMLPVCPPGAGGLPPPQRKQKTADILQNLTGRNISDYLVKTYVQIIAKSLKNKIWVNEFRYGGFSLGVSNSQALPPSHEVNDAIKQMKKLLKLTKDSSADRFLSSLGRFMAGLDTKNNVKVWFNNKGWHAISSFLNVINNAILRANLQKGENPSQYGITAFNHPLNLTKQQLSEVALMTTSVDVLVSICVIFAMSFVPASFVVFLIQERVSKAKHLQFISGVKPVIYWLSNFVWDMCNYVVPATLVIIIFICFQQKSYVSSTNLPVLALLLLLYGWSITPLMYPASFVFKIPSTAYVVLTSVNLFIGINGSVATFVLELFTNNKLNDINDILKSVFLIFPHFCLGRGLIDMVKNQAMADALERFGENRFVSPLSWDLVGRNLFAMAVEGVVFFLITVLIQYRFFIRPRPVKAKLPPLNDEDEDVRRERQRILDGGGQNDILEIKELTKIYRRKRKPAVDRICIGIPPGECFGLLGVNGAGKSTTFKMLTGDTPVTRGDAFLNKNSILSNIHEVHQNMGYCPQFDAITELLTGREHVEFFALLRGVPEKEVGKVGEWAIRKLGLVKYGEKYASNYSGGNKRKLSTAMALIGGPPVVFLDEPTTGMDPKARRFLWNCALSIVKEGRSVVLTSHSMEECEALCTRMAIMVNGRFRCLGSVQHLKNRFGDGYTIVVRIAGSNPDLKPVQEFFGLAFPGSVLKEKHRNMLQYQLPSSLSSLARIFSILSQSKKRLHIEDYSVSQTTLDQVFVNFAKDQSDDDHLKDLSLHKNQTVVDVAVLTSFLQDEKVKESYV

[3] = target: T1, ABCA1; test: as above; assay type: cell-based; parameters: J774 macrophages were used to assess relative ABCA1 protein levels in the presence and absence of synthetic peptides; endogenous in cells; host or cells: J774 macrophages treated with a cAMP analog (CPT-cAMP or 8-bromo-cAMP); conditions: 20 μg/ml peptide, 6 h without cAMP, J774 macrophages
Description: J774 macrophages were incubated (18 h) with 0.5 mM 8-bromo-cAMP in medium containing 0.1% bovine serum albumin to up-regulate ABCA1 protein expression. Washed cells were subsequently exposed for 6 h to bovine serum albumin medium with (+) or without (−) 8-bromo-cAMP and the indicated synthetic peptides (20 μg/ml). None refers to no peptides. The cellular membrane content of ABCA1 protein was measured by immunoblot analysis.
ABCA1 Stabilization—J774 macrophages were used to assess relative ABCA1 protein levels in the presence and absence of synthetic peptides. Cells were grown in 10% fetal bovine serum, extensively rinsed, and incubated (18 h) with Dulbecco's modified Eagle's medium containing 0.1% bovine serum albumin plus the cAMP analog 8-bromo-cAMP. Cells were next exposed to synthetic peptides or serum-free medium in the absence of the cAMP stimulus to evaluate whether ABCA1 protein was stabilized or degraded. Relative levels of ABCA1 protein were assessed by immunoblot analysis of cell membranes (Oram, J. F. et al., J. Biol. Chem., 278:52379-52385 (2003)). ABCA1 was visualized using an enhanced chemiluminescence detection assay.
To assess ABCA1 stabilization, J774 macrophages were treated with a cAMP analog to up-regulate ABCA1 protein expression and then incubated for 6 h without cAMP. In the absence of inducer, ABCA1 protein is rapidly degraded in these cells (FIG. 9). […] Thus, it appears that the helical combinations that stimulate cholesterol efflux also stabilize the ABCA1 transporter.

[4] = target: T1, ABCA1; test: Cellular cholesterol efflux from [3H]cholesterol-labeled J774 macrophages with and without cAMP analog; assay type: cell-based; parameters: endogenous in cells; host or cells: J774 macrophages treated with a cAMP analog (CPT-cAMP or 8-bromo-cAMP); conditions: for concentration at which cholesterol efflux reached maximal levels: cAMP-treated J774 cells; for ABCA1-dependent cholesterol efflux (result in words): lipid-free acceptor, J774 macrophages with vs without cAMP analog
Text: Suitable cholesterol efflux assays are described in, e.g., Bielicki, J. K and Oda, M. N., Biochemistry, 41:2089-2096 (2002); Jia, Z. et al., Biochem. Biophys. Res. Common., 297:206-213 (2002). In some embodiments, a polypeptide known to mediate cholesterol efflux (e.g., helix 9/10 of Apo A-I) is used to screen for additional mediators of cholesterol efflux in a cell based assay. For example, cell lines in which cholesterol efflux can be enhanced using a cAMP analog that up-regulates ABCA1 protein expression (e.g., J774 macrophages) can conveniently be used to assess the ability of an Apo A-I, Apo A-II, Apo A-IV, Apo E, Apo C-I, Apo C-II, Apo C-III, or Serum Amyloid A peptide to mediate cholesterol efflux. The cells are incubated with labeled cholesterol (e.g., [^3H]cholesterol) under conditions appropriate for cholesterol uptake by the cells. cAMP or cAMP analogs (e.g., CPT-cAMP) is incubated with the cells for a suitable time before the initiation of cellular cholesterol efflux, i.e., prior to contacting the cells with helix 9/10 of Apo A-I or the test compound. Measurement of labeled cholesterol appearing in the medium is used to determine the cholesterol efflux mediating activity of the test compound.
Cellular Cholesterol Efflux Protocol—J774 macrophages were used to assess the cholesterol efflux properties of synthetic amphipathic α-helical peptides (Bielicki, J. K and Oda, M. N., Biochemistry, 41:2089-2096 (2002); Jia, Z. et al., Biochem. Biophys. Res. Common., 297:206-213 (2002)). This cell line was chosen because cholesterol efflux can be enhanced using a cAMP analog that up-regulates ABCA1 protein expression. The cells were seeded onto 24-well culture plates and labeled for 48 h with [^3H]cholesterol in RPMI 1640 supplemented with 1% fetal bovine serum. The cAMP analog CPT-cAMP was added (0.3 mM, final concentration) to the cells at least 12 h before the initiation of cellular cholesterol efflux. Synthetic peptides in lipid-free form were added to cells in serum-free RPMI. The lipid-free form of full-length recombinant apoA-I was used as a positive control to define apparent ABCA1-dependent cholesterol efflux in the presence and absence of cAMP stimulation. Efflux results were expressed as a percentage of the initial cellular [^3H] appearing in the medium as a function of time subtracting the background efflux obtained using serum-free medium alone.

[5] = DMPC clearance assay (solubilization of a turbid phospholipid solution); assay type: physicochemical
Text: as §1, with “Peptides-In” for “Peptides—In”, “[…].,” for “Hagaman, K. A.,”

Q: With `CC(=O)N[C@@H](CC(C)C)C(=O)N[C@@H](CCCCN)C(=O)N[C@@H](CC(C)C)C(=O)N[C@@H](CC(C)C)C(=O)N[C@@H](CC(=O)O)C(=O)N[C@@H](CC(N)=O)C(=O)N[C@@H](Cc1c[nH]c2ccccc12)C(=O)N[C@@H](CC(=O)O)C(=O)N[C@@H](CO)C(=O)N[C@H](C(=O)N[C@H](C(=O)N[C@@H](CO)C(=O)N[C@H](C(=O)N[C@@H](Cc1ccccc1)C(=O)N[C@@H](CO)C(=O)N[C@@H](CCCCN)C(=O)N[C@@H](CC(C)C)C(=O)N[C@@H](CCCNC(=N)N)C(=O)N[C@@H](CCC(=O)O)C(=O)N[C@@H](CCC(N)=O)C(=O)N[C@@H](CC(C)C)C(=O)NCC(=O)N1CCC[C@H]1C(=O)N[C@@H](C)C(=O)N[C@@H](CC(C)C)C(=O)N[C@@H](CCC(=O)O)C(=O)N[C@@H](CC(=O)O)C(=O)N[C@@H](CC(C)C)C(=O)N[C@@H](CCCNC(=N)N)C(=O)N[C@@H](CCC(N)=O)C(=O)NCC(=O)N[C@@H](CC(C)C)C(=O)N[C@@H](CC(C)C)C(N)=O)[C@@H](C)O)[C@@H](C)O)C(C)C` [Helical peptide 1/9] (Ac-LKLLDNWDSVTSTFSKLREQLGPALEDLRQGLL-NH2) as the molecule, how does the “lipid binding affinity (surface balance technique), result in words” value [1] read?
A: The value was “identical”.

Q: And the Monolayer exclusion pressure [1]?
A: The Monolayer exclusion pressure was 31 dynes/cm.

Q: And the “lowest concentration that prevented ABCA1 degradation” value [2]?
A: The value was 10 µg/mL.

Q: And the “ABCA1 stabilization (result in words)” value [3]?
A: Its value is “stabilized cellular ABCA1 protein to levels comparable with those observed when cells were exposed continuously to cAMP”.

Q: What about the “concentration at which cholesterol efflux reached maximal levels” value [4] of the same molecule?
A: The value was 50 µg/mL.

Q: And the “ABCA1-dependent cholesterol efflux (result in words)” value [4]?
A: The value was “stimulated cholesterol efflux in the absence and presence of CAMP stimulation similar to full-length apoA-I”.

Q: And the DMPC clearance [5]?
A: The DMPC clearance was “+”.

Q: Which Monolayer exclusion pressure [1] does the source give for `CC(=O)N1CCC[C@H]1C(=O)N[C@@H](C)C(=O)N[C@@H](CC(C)C)C(=O)N[C@@H](CCC(=O)O)C(=O)N[C@@H](CC(=O)O)C(=O)N[C@@H](CC(C)C)C(=O)N[C@@H](CCCNC(=N)N)C(=O)N[C@@H](CCC(N)=O)C(=O)NCC(=O)N[C@@H](CC(C)C)C(=O)N[C@@H](CC(C)C)C(=O)N1CCC[C@H]1C(=O)N[C@H](C(=O)N[C@@H](CC(C)C)C(=O)N[C@@H](CCC(=O)O)C(=O)N[C@@H](CO)C(=O)N[C@@H](Cc1ccccc1)C(=O)N[C@@H](CCCCN)C(=O)N[C@H](C(=O)N[C@@H](CO)C(=O)N[C@@H](Cc1ccccc1)C(=O)N[C@@H](CC(C)C)C(=O)N[C@@H](CO)C(=O)N[C@@H](C)C(=O)N[C@@H](CC(C)C)C(=O)N[C@@H](CCC(=O)O)C(=O)N[C@@H](CCC(=O)O)C(=O)N[C@@H](Cc1ccc(O)cc1)C(=O)N[C@H](C(=O)N[C@@H](CCCCN)C(=O)N[C@@H](CCCCN)C(=O)N[C@@H](CC(C)C)C(=O)N[C@@H](CC(N)=O)C(N)=O)[C@@H](C)O)C(C)C)C(C)C` [Helical peptide 9/10] (Ac-PALEDLRQGLLPVLESFKVSFLSALEEYTKKLN-NH2) here?
A: The Monolayer exclusion pressure was 36 dynes/cm.

Q: What about the “lowest concentration that prevented ABCA1 degradation” value [2] of the same molecule?
A: The value was 10 µg/mL.

Q: What about the “ABCA1 stabilization (result in words)” value [3] of the same molecule?
A: The value was “stabilized cellular ABCA1 protein to levels comparable with those observed when cells were exposed continuously to cAMP”.

Q: And the “potency in mediating ABCA1-dependent cholesterol efflux relative to the 1/9 chimera” value ([4]; FIGS. 2B versus 3C)?
A: Its value is 2 fold.

Q: And the “concentration giving maximal ABCA1 stabilization and cholesterol efflux” value ([4]; both ABCA1 stabilization and cholesterol efflux)?
A: The value was 10 to 25 µg/mL.

Q: And the “concentration at which cholesterol efflux reached maximal levels” value [4]?
A: The value was 25 µg/mL.

Q: And the “ABCA1-dependent cholesterol efflux (result in words)” value [4]?
A: The value was “stimulated cholesterol efflux in an ABCA1-dependent manner”.

Q: What about the DMPC clearance [5] of the same molecule?
A: The DMPC clearance was “+”.
